Measurements: US5719303A, “Phosphonic acid derivatives” (Eisai Co., Ltd., priority 1993, dated 1998)

Target: T1, squalene synthetase (Rattus norvegicus, UniProt Q02769)
T1 construct: 50 μl of a 1 mg/ml rat liver microsome; from tissue; host or cells: liver microsomes of Sprague-Dawley rats fed 2% cholestyramine; 105000 g fraction
T1 sequence (Q02769 1-416): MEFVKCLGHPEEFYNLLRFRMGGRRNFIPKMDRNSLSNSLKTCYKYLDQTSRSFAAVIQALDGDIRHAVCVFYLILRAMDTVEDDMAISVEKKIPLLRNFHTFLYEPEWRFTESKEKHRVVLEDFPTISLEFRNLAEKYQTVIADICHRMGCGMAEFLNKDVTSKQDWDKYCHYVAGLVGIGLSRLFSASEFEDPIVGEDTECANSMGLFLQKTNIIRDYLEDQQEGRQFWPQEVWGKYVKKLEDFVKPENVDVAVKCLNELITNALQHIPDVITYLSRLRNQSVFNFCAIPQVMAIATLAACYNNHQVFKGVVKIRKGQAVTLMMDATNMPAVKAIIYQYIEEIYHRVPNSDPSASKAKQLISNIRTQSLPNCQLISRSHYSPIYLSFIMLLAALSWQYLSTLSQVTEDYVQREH
Test: Inhibitory activity against squalene synthetase (3H-FPP to squalene, rat liver microsome)
Format: biochemical
Settings: 3H-FPP substrate, 37° C., 10 minutes, pH 7.4
Description: 50 μl of 500 mM Tris-HCl (pH: 7.4), 50 μl of 10 mM magnesium chloride, 50 μl of 2 mM potassium fluoride, 50 μl of 10 mM nicotinamide adenine dinucleotide phosphate (hereinafter abbreviated to "NADPH"), 100 μl of a sample solution of five-fold concentration, 100 μl of distilled water and 50 μl of a 1 mg/ml rat liver microsome were put in a centrifuge tube, with the liver microsome being one prepared by the method which will be described below.
The above mixture was preincubated at 37° C. for 5 minutes. 50 μl of 100 μM 3H-FPP (10 mCi/mmol, NEN) was added to the resulting mixture to initiate a reaction. After 10 minutes, 1 ml of 4N sodium hydroxide was added to the mixture to stop the reaction, followed by the addition of 1 ml of ethanol. The obtained mixture was incubated at 80° C. for 12 hours, cooled with ice and extracted with petroleum ether twice. The petroleum ether phases were separated from the aqueous phase and evaporated to dryness with nitrogen gas. The residue was dissolved in 25 μl of chloroform containing squalene, farnesol and cholesterol as markers. The obtained solution was applied to TLC (Empore: 412001-1) and developed with benzene/isopropyl ether (1:1) for 6 minutes and with heptane for 15 minutes.
The band of squalene was cut from the plate and examined for radioactivity with a liquid scintillation counter to determine the inhibitory ratio.
The rate liver microsome used in the above experiment was prepared as follows.
A Sqraque-Dawley rat was fed with a feed containing 2% of cholestyramine (Dowex 1-X2) for at least 5 days to enhance the cholesterol biosynthesis activity. At midnight (0:00), the liver was extirpated from the rat. A 1.15 (w/v) % potassium chloride solution was circulated in the blood vessel of the liver extirpated under cooling with ice to remove the blood. The resulting liver was cut into small pieces with scissors, homogenized with a Teflon homogenizer of loose fitting type and subjected to centrifugation (700 g, 10 minutes). The obtained supernatant was further subjected to centrifugation (15000 g, 20 minutes) and the obtained supernatant was subjected to centrifugation (105000 g, 60 minutes) to be separated into a microsome fraction and a supernatant. This microsome fraction was washed with a 0.1M potassium phosphate buffer (pH: 7.4) once, and suspended in the same buffer in a liver concentration of 3 g/ml. The obtained suspension was examined for protein content by the Lowry method and the protein content of the suspension was adjusted to 20 mg/ml.

Compound `C/C(=C\CN(C)CC(O)CC(C(=O)O)P(=O)(O)O)CCc1ccc2ccccc2c1` (mixture of isomers) [Example 19, Trisodium 1-carboxy-4-[N-methyl-3-methyl-5-(2-naphthyl)-2-pentenylamino]-3-hydroxybutylphosphonate (diastereomeric mixture)] has an IC50 of 170 nM.

In the case of `CC(O)c1ccc(Cc2ccc(CN(C)CCCC(P(=O)(O)O)P(=O)(O)O)cc2)cc1` (stereo not drawn) [Example 14, Tetrasodium 4[N-methyl-4-[4-(1-hydroxyethyl)benzyl]benzylamino]butylidene-1-diphosphonate], the IC50 is reported as 2.4 nM.

For `CC(C)=CCC/C(C)=C/CN(C)C(=O)OCCCC(P(=O)(O)O)P(=O)(O)O` [Example 15, Tetrasodium 4-[(E)-N-(3,7-dimethylocta-2,6-dienyl)-N-methylcarbamoyloxybutylidene-1,1-diphosphonate], the IC50 was 0.81 nM.

Compound `COc1ccc(C(=O)C2CCN(CCCC(P(=O)(O)O)P(=O)(O)O)CC2)cc1` [Example 16, 4-[4(4-Methoxybenzoyl)piperidino]butylidene-1,1-diphosphonic acid] has an IC50 of 0.28 nM.

Compound `CN(CCCC(P(=O)(O)O)P(=O)(O)O)Cc1ccc(-c2ccccc2)cc1` [Example 32] has an IC50 of 1.4 nM.

In the case of `CN(CCCC(P(=O)(O)O)P(=O)(O)O)Cc1ccc(-c2cccnc2)s1` [Example 41], the IC50 is reported as 5 nM.

Work on `CC(O)c1ccc(-c2ccc(CN(C)CCCC(P(=O)(O)O)P(=O)(O)O)s2)cc1` (stereo not drawn) [Example 42] yielded an IC50 of 1.8 nM.

Work on `COc1ccccc1C(C)=CCN(C)CCCC(P(=O)(O)O)P(=O)(O)O` [Example 114] yielded an IC50 of 2.4 nM.

For `CN(CCCC(P(=O)(O)O)P(=O)(O)O)Cc1ccc(C(=O)c2ccccc2)c(O)c1` [Example 201], the IC50 was 0.91 nM.

`O=P(O)(O)C(CC1CCN(Cc2cccc(/C=C/c3ccccc3)c2)CC1)P(=O)(O)O` [Example 209] showed an IC50 of 1.3 nM.

`Cc1c(-c2ccccc2)ncn1CCCNC(P(=O)(O)O)P(=O)(O)O` [Example 210] was tested, and the IC50 was 4 nM.

`C/C(=C\CC(P(=O)(O)O)P(=O)(O)O)CCc1ccc2ccccc2c1` [Example 223] gave an IC50 of 1 nM.

For `CC(C)=CCC/C(C)=C/CC/C(C)=C/c1cccc(C(P(=O)(O)O)P(=O)(O)O)c1` [Example 230], the IC50 was 3 nM.

With `CC(=O)c1cccc(/C(C)=C/CN(C)CCCC(P(=O)(O)O)P(=O)(O)O)c1` [Example 238] the IC50 was 0.54 nM.

For `CC(=O)c1ccc(Cc2ccc(CN(C)CCCC(P(=O)(O)O)P(=O)(O)O)cc2)cc1` [Example 246], the IC50 was 3.1 nM.
